# Source: publication PMC12507958, “Modification of human metallothioneins by garlic organosulfur compounds, allicin and ajoene: direct effect on zinc homeostasis with relevance to immune regulation” (Biometals, 2025)
# Tests used:
# Format in all cases: binding
# [1] = biological target: T1, MT4 (Homo sapiens, UniProt P47944); assay: Zn(II) release followed with PAR at […] nm; settings: 1 uM Zn(II)-loaded MT, 80 uM allicin, 200 uM PAR, 50 mM HEPES, 100 mM NaCl, pH 7.4, 25 °C; covalent (Cys S-thioallylation)
# T1 construct: full-length recombinant, intein/chitin tag (pTYB21) cleaved by DTT, from E. coli BL21(DE3)pLysS; Zn7-loaded
# T1 sequence (P47944 whole entry): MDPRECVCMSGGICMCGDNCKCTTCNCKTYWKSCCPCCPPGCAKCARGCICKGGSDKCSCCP
# [2] = biological target: T2, MT3 (Homo sapiens, UniProt P25713); assay: Zn(II) release followed with PAR at […] nm; settings: 1 uM Zn(II)-loaded MT, 80 uM allicin, 200 uM PAR, 50 mM HEPES, 100 mM NaCl, pH 7.4, 25 °C; covalent (Cys S-thioallylation)
# T2 construct: full-length recombinant, intein/chitin tag (pTYB21) cleaved by DTT, from E. coli BL21(DE3)pLysS; Zn7-loaded
# T2 sequence (P25713 whole entry): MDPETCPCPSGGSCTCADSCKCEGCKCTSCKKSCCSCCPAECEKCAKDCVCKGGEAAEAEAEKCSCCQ
# [3] = biological target: T3, MT2 (Homo sapiens, UniProt P02795); assay: Zn(II) release followed with PAR; adducts by ESI-MS and top-down MS; settings: 1 uM Zn(II)-loaded MT2, 80 uM allicin, 100 uM PAR, 50 mM HEPES, 100 mM NaCl, pH 7.4; covalent (S-thioallylation, Cys within residues 19-30)
# T3 construct: gene MT2A; full-length recombinant, intein/chitin tag (pTYB21) cleaved by DTT, from E. coli BL21(DE3)pLysS; Zn7-loaded (Zn7MT2)
# T3 sequence (P02795 whole entry, the tested form may be a part): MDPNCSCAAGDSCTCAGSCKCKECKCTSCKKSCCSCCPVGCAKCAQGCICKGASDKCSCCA
# [4] = biological target: T4, MT1a (Homo sapiens, UniProt P04731); assay: Zn(II) release followed with PAR at […] nm; settings: 1 uM Zn(II)-loaded MT, 80 uM allicin, 200 uM PAR, 50 mM HEPES, 100 mM NaCl, pH 7.4, 25 °C; covalent (Cys S-thioallylation)
# T4 construct: full-length recombinant, intein/chitin tag (pTYB21) cleaved by DTT, from E. coli BL21(DE3)pLysS; Zn7-loaded
# T4 sequence (P04731 whole entry): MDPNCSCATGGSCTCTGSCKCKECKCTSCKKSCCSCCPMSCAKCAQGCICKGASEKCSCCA
# [5] = biological target: T3, MT2; assay: Zn(II) release followed with PAR; adducts by ESI-MS and top-down MS; settings: 1 uM Zn(II)-loaded MT2, 80 uM ajoene, 100 uM PAR, 50 mM HEPES, 100 mM NaCl, pH 7.4, 25 °C; covalent (Cys within residues 29-53)
Structure (SMILES),Zn(II) mol. eq. dissociated after 60 min [1] [mol. eq.],Zn(II) mol. eq. dissociated after 60 min [2] [mol. eq.],Zn(II) mol. eq. dissociated after 1 h [3] [mol. eq.],Zn(II) mol. eq. dissociated after 60 min [4] [mol. eq.],Zn(II) mol. eq. dissociated after 60 min [5]
C=CCS[S+]([O-])CC=C (centres unmarked) [allicin],2.8,5.2,5.3,5,–
C=CCSSC=CC[S+]([O-])CC=C (centres unmarked) [ajoene],–,–,–,–,almost 6
